Experimental data reported in US11466069B2, “Methods of treatment and novel constructs” (AUCKLAND UNISERVICES LIMITED, priority 2017, dated 2022).
“Also recorded” adds a separate entry of the source. Non-standard residues stand in square brackets, D forms with d. Residues, ends and D or L forms follow the SMILES beside them. No end group written: not given here.

Experiments:
Cx43 hemichannel [1] = molecular target: T1, Cx43 hemichannel (Homo sapiens, UniProt P17302); conditions: ethidium bromide uptake, literature (6); cited from earlier work
T1 sequence (P17302 2-382 limits assumed): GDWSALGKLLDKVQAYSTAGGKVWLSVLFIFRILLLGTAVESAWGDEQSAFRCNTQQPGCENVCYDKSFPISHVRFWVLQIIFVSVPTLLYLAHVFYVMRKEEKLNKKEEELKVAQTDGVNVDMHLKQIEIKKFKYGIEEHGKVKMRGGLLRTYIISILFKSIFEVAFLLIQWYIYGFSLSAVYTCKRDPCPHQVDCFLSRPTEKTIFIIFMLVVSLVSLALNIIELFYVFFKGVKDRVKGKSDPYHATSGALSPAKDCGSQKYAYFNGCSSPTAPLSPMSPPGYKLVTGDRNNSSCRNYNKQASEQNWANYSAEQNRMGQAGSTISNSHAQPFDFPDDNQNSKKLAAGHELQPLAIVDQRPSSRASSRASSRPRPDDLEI

[2] = system: hyperglycaemic and inflamed ARPE-19 cells; assay: Cellular uptake in hyperglycaemic and inflamed ARPE-19 cells; format: cell-based, human; conditions: ARPE-19, FITC labelled peptide, 24 h
Procedure: The inflammatory cytokines TNFα and Il-1β (PeproTech) were added to achieve a final concentration of 10 ng/ml each. Antibiotic-Antimycotic was added to the solution to achieve a 1% concentration. The solution was made fresh before application to cells.
(§1) Peptides or control channel blockers, carbenoxolone (CBX) (Sigma) or lanthanum chloride (LaCl3; Sigma) were mixed with DMEM/F12 or EGM-2™ BulletKit™ media at appropriate concentrations and applied onto cells for 1 h at 37° C., 5% CO2. For cell uptake under hypoxic conditions, peptides were delivered in hypoxic, acidic ion-shifted Ringers (HAIR) solution (13) for 1 h at 37° C., 5% CO2. For cell uptake under hyperglycaemia and inflammation conditions peptides were delivered in hyperglycaemia and inflammation solution for 24 h at 37° C., 5% CO2. The solutions were removed and cells were washed in PBS and fixed in 4% formaldehyde PBS with nuclei were counterstained with DAPI. Coverslips were mounted in anti-fade medium (Citifluor™ AF1) and cells were visualised by confocal microscopy.

hRMEC cells = assay: Cellular uptake of FITC labelled peptides into hRMEC cells (confocal microscopy); format: cell-based, human
Procedure: Primary human retinal microvascular endothelial cells (hRMEC; Neuromics) were cultured and maintained in T25 flasks in EGM-2™ BulletKit™ media (Lonza) containing endothelial basal media (EBM-2; Lonza) and EGM-2 SingleQuots™ (Lonza), supplemented with 10% fetal bovine serum and 1% Antibiotic-Antimicotic (Sigma) at 37° C. with 5% CO2. VEGF was excluded from the EGM-2 media.
as §1

ARPE-19 cells [3] = assay: Cellular uptake of FITC labelled peptides into ARPE-19 cells in normal medium; format: cell-based, human; conditions: for concentration at which cellular uptake was detected (FITC fluorescence): normal medium, FITC labelled peptide, 1 h, 10-50 μM (Gap19 up to 100 μM)
Procedure: Cell culture and maintenance Unless otherwise mentioned, all cell culture reagents were purchased from Gibco® or Invitrogen™ (Life Technologies). ARPE-19 cells are from a human retinal pigment epithelium cell line purchased from American Type Culture Collection (ATCC), and were maintained in T25 flasks in DMEM/F12 (DMEM/F-12, GlutaMAX™ medium containing 10% heat inactivated foetal bovine serum (FBS), and 1% Antibiotic-Antimicotic (Sigma)) at 37° C. with 5% CO2.
as §1

gap junction = conditions: literature (6); cited from earlier work
hypoxic ARPE-19 cells = assay: Cellular uptake in hypoxic ARPE-19 cells (HAIR solution); format: cell-based, human; conditions: ARPE-19, FITC labelled peptide, HAIR solution 1 h
Procedure: as §1

Cx43 hemichannel [4] = molecular target: T1, Cx43 hemichannel; assay: Hemichannel mediated EthD-1 dye uptake assay; format: cell-based; parameters: endogenous in cells; conditions: ARPE-19 cells, 5 μM peptide, low calcium solution
Procedure: Peptides were applied onto cells for uptake as previously mentioned. Peptide solutions were removed from the cells exposed to 2 μM ethidium homodimer-1 (EthD-1) in either Hanks Buffered Salt Solution (137 mM NaCl, 5.4 mM KCl, 0.25 mM Na2HPO4, 0.1 g glucose, 0.44 mM KH2PO4, 1.0 mM MgSO4, 4.2 mM NaHCO3)+EGTA (5 mM) (low calcium solution) to open hemichannels or high calcium (Ca′) solution (Hanks Buffered Salt Solution+1.3 mM CaCl2)) for […] at 37° C., 5% CO2. The solutions were removed, cells were washed in PBS and fixed in 4% formaldehyde PBS before counterstaining nuclei with DAPI. Coverslips were mounted in anti-fade medium (Citifluor™ AF1) and slides were imaged.

gap junctions = assay: Lucifer Yellow dye scrape/load gap junction assay; format: cell-based, human; conditions: ARPE-19, scrape/load; XG19 5 μM
Procedure: Peptides were applied onto cells for uptake as previously mentioned. Peptide solutions were removed from the cells and the cells were exposed to 0.1% […]/PBS dye (LY). A vertical and horizontal scrape was created in the cell monolayer using a pipette tip. The cells were then incubated at room temperature for 15 min. The LY dye solution was removed, cells were washed in PBS and fixed in 4% formaldehyde PBS with nuclei counterstained with DAPI. Coverslips were mounted in anti-fade medium (Citifluor™ AF1) and slides were imaged.

Cx43 hemichannel [5] = molecular target: T1, Cx43 hemichannel; assay: Hemichannel mediated ATP release assay (low calcium solution); format: cell-based; parameters: endogenous in cells; conditions: for ATP release compared to low calcium, 30 min: ARPE-19, 5 μM XG19, 100 μM Peptide5, 100 μM CBX, 30 min low calcium
Procedure: Peptides were applied onto cells for uptake studies as previously described. Peptide solutions were removed from the cells, which were then exposed to either low calcium (Ca^2+) solution or HAIR solution to open hemichannels or high calcium solution to close hemichannels for […] at 37° C., 5% CO2.

ARPE-19 cells [6] = assay: MTT cytotoxicity assay; format: cell-based, human; conditions: ARPE-19 cells, 5, 10 or 20 μM for 1 or 24 h
Procedure: ARPE-19 cells were exposed to DMEM/F12 (normal medium) or HAIR solution for 1 h. XG19 was mixed in DMEM/F12 or HAIR solution and applied to ARPE-19 cells at 0, 5, 10 or 20 μM concentrations for either 1 or 24 h at 37° C., 5% CO2. After the incubation period, the solutions in each well were removed and replaced with 0.5 mg/mL, MTT (Thermo Fisher Scientific) in PBS and incubated for 4 h at 37° C. and 5% CO2. The MTT/PBS solution was then removed and replaced with HCl-isopropanol solution (0.04 M) to dissolve formed formazan. The intensity of purple colour was quantified by measuring absorbance at 570 nm with correction of interference at 650 nm (BioTek Synergy HT).

KQIEIKKFK (listed as Homo sapiens) [Gap19]
concentration at which efficacy improved (Cx43 hemichannel [1]): 344 to 688 µM
concentration with no effect on Cx43 hemichannel inhibition (Cx43 hemichannel [1]): > 172 µM
cellular uptake in hyperglycaemia and inflammation solution vs normal media [2]: undetectable in either condition; also recorded: no change in uptake
cellular uptake (FITC fluorescence) at 100 μM (hRMEC cells; 100 μM, still lower than 10 μM XG19): Some uptake was observed
concentration at which cellular uptake was detected (FITC fluorescence) (hRMEC cells; FITC labelled peptide, 1 h, XG19 10, 20, 50 μM, Gap19 10, 20, 50, 100 μM): > 50 µM
concentration at which cellular uptake was detected (FITC fluorescence) (ARPE-19 cells [3]; ARPE-19 cells): > 100 µM
gap junction function post uptake (gap junction): maintain gap junction function
cellular uptake in hypoxic solution vs normal media (hypoxic ARPE-19 cells): undetectable in either condition; also recorded: no change in uptake

YGRKKRRQRRRKQIEIKKFK [TAT-Gap19, fusion peptide of TAT peptide and Gap19]
concentration at which cells were saturated with peptide (ARPE-19 cells [3]; ARPE-19 cells): 20 µM
cellular uptake (FITC fluorescence), dependence on concentration (ARPE-19 cells [3]; ARPE-19 cells, 10, 20, 50 μM): dose dependant manner
overall cellular uptake compared to XG19 (ARPE-19 cells [3]; ARPE-19 cells, 10, 20, 50 μM): higher cell uptake than XG19
overall cellular uptake compared to XG19 (ARPE-19 cells [3]; ARPE-19 cells, 10, 20, 50 μM, listed as TAT-GAP19): much greater than for XG19 at all the tested concentrations
subcellular localisation of peptide after uptake (ARPE-19 cells [3]; ARPE-19 cells, FITC vs DAPI): mainly accumulated into the nucleus
concentration at which cellular uptake was detected (FITC fluorescence) (ARPE-19 cells [3]; ARPE-19 cells): ≤ 10 µM

FITC-XG19: FITC labelled XG19 used in the cellular uptake experiments ([dL][dC][dL][dR][dP][dV]GGKQIEIKKFK; also: FITC label, site not given here)
EthD-1 dye uptake (mean fluorescence intensity) compared to low calcium treatment (Cx43 hemichannel [4]): significant reduction of the mean fluorescence intensity; also recorded: reduced EthD-1 uptake

CC1(C)[C@@H](OC(=O)CCC(=O)O)CC[C@]2(C)[C@H]3C(=O)C=C4[C@@H]5C[C@@](C)(C(=O)O)CC[C@]5(C)CC[C@@]4(C)[C@]3(C)CC[C@@H]12 [CBX, carbenoxolone]
gap junction function (Lucifer Yellow dye spread to neighbouring cells) (gap junctions): the dye was not further transported to any neighbouring cells; also recorded: inhibited gap junction communication
ATP release compared to low calcium, 30 min (Cx43 hemichannel [5]): reduced ATP release

CC[C@H](C)[C@H](NC(=O)[C@H](CCC(=O)O)NC(=O)[C@@H](NC(=O)[C@H](CCC(N)=O)NC(=O)[C@H](CCCCN)NC(=O)CNC(=O)CNC(=O)[C@H](NC(=O)[C@H]1CCCN1C(=O)[C@@H](CCCNC(=N)N)NC(=O)[C@@H](CC(C)C)NC(=O)[C@@H](CS)NC(=O)[C@H](N)CC(C)C)C(C)C)[C@@H](C)CC)C(=O)N[C@@H](CCCCN)C(=O)N[C@@H](CCCCN)C(=O)N[C@@H](Cc1ccccc1)C(=O)N[C@@H](CCCCN)C(=O)O [XG19] (H-[dL][dC][dL][dR][dP][dV]GGKQIEIKKFK-OH)
cell viability (MTT) compared to untreated cells (ARPE-19 cells [6]): no significant difference in cell viability

VDCFLSRPTEKT [PepS]
ATP release relative to CBX treated group (Cx43 hemichannel [5]; ARPE-19, low calcium solution): greater than CBX
ATP release compared to low calcium, 30 min (Cx43 hemichannel [5]): reduced ATP release
